According to paper PMC9986876, “Prediction of Antileishmanial Compounds: General Model, Preparation, and Evaluation of 2-Acylpyrrole Derivatives” (Journal of Chemical Information and Modeling, 2022):

Tests used:
[1] = system: L. amazonensis (MHOM/Br/79/Maria) promastigotes; assay: In vitro promastigote susceptibility assay (resazurin); format: cell-based; conditions: for SI (selectivity index, SI = CC50/IC50): CC50 J774 / IC50 L. amazonensis promastigotes; for IC50: Leishmania amazonensis; for IC50 / IC50 ± SD: L. amazonensis promastigotes, 48 h at 26 °C, triplicate, N/A = not active at 100 μg/mL
Protocol: (§1) The following species of Leishmania were used: L. donovani (MHOM/IN/80/DD8) was purchased (ATCC, USA) and L. amazonensis (MHOM/Br/79/Maria) was kindly provided by Prof. Alfredo Toraño (Instituto de Salud Carlos III, Madrid). Promastigotes were cultured in Schneider’s insect medium supplemented with 10% heat-inactivated fetal bovine serum (FBS) and 1000 U/L of penicillin plus 100 mg/L of streptomycin in 25 mL culture flasks at 26 °C. […] New samples of the compounds have been prepared according to the protocol described above, and subsequently solutions of the chemical compound to be assayed have been dissolved in DMSO at 50 mg/mL. […] Growth control and signal-to-noise control were also included. The final solvent (DMSO) concentrations never exceeded 0.5% (v/v) warranting no effect on parasite proliferation or morphology. After 48 h at 26 °C, 20 μL of a 2.5 mM resazurin solution was added to each well and the plates were returned to the incubator for another 3 h. […] Growth inhibition (%) was calculated by 100 – [(RFU treated wells – RFU signal-to-noise)/(RFU untreated – RFU signal-to-noise) × 100]. All tests were carried out in triplicate. Miltefosine (Sigma-Merck, Madrid, Spain) was used as the reference drug and was evaluated under the same conditions. […] The selectivity index (SI) was calculated as the ratio between cytotoxicity (CC50) and activity against parasites (IC50).

[2] = system: L. donovani (MHOM/IN/80/DD8) promastigotes; assay: as above; format: cell-based; conditions: for IC50: Leishmania donovani, L. donovani promastigotes, 48 h at 26 °C, triplicate, N/A = not active at 100 μg/mL; for SI (selectivity index, SI = CC50/IC50): CC50 J774 / IC50 L. donovani promastigotes
Protocol: as §1

[3] = Cytotoxicity assay on macrophages (resazurin); format: cell-based, BALB/c mice; conditions: mouse, J774 macrophages, macrophages J774, 24 h exposure, Table 2; values marked e correspond to 100 μg/mL, the higher dose tested
Protocol: The assay was carried out as previously described.[30] J774 macrophages cell lines were seeded (5 × 10^4 cells/well) in 96-well flat-bottom microplates with 100 μL of RPMI 1640 medium. The cells were allowed to attach for 24 h at 37 °C and 5% CO2, and the medium was replaced by different concentrations of the compounds in 200 μL of medium and exposed for another 24 h. Growth controls and signal-to-noise were also included. Afterward, a volume of 20 μL of 2.5 mM resazurin solution was added, and plates were returned to the incubator for another 3 h to evaluate cell viability. The reduction of resazurin was determined by fluorometry as in the promastigote assay. Each concentration was assayed three times.

L. major promastigotes = conditions: in vitro; cited from earlier work

| SMILES | SI (selectivity index, SI = CC50/IC50) [1] | IC50 [1] | IC50 [2] | CC50 at 24 h [3] [µM] | SI (selectivity index, SI = CC50/IC50) [2] | IC50 ± SD [1] | IC50 (L. major promastigotes) [µM] |
| --- | --- | --- | --- | --- | --- | --- | --- |
| Cc1cccnc1-n1cccc1C(=O)c1ccn(C)c1 [5br] | >1.66 | 227 ± 13.4 µM | > 100 µg/mL | > 377 |  |  |  |
| COc1ccc(C(=O)c2cccn2-c2ncccn2)c(OC)c1 [5al] |  | > 100 µg/mL | > 100 µg/mL | 224 ± 46.9 |  |  |  |
| Cc1cccnc1-n1cccc1C(=O)c1ccoc1 [5bs] |  | > 100 µg/mL | > 100 µg/mL | > 396 |  |  |  |
| O=C(c1ccc([N+](=O)[O-])cc1)c1cccn1-c1ncccn1 [5ah] |  | > 100 µg/mL | > 100 µg/mL | > 340 |  |  |  |
| COc1ccc(C(=O)c2cccn2-c2ncccc2C)cc1 [5bo] | >1.53 | 224 ± 14.7 µM | 173 ± 60.3 µM | > 342 | >1.98 |  |  |
| COc1cc(OC)cc(C(=O)c2cccn2-c2ncccc2C)c1 [5bj] | >1.53 | 71.1 ± 7.81 µM | 43.5 ± 0.59 µM | 108 ± 5.76 |  |  |  |
| Cc1cccnc1-n1cccc1C(=O)c1ccccc1 [5ba] | >2.50 | 153 ± 21.6 µM | > 100 µg/mL | > 381 |  |  |  |
| O=C(c1ccc2ccccc2c1)c1cccn1-c1ncccn1 [5an] | >3.12 | 36.1 ± 1.23 µM | 58.5 ± 3.34 µM | 113 ± 39.2 | >1.93 |  |  |
| Cc1ccc(C(=O)c2cccn2-c2ncccc2C)cc1 [5bb] | >2.43 | 149 ± 3.84 µM | 120 ± 15 µM | > 362 | >3.02 |  |  |
| COc1cc(OC)cc(C(=O)c2cccn2-c2ncccn2)c1 [5aj] | >2.71 | 32.5 ± 0.64 µM | 211 ± 32.8 µM | 88.3 ± 3.36 | >0.42 |  |  |
| O=C(c1cc(C(F)(F)F)cc(C(F)(F)F)c1)c1cccn1-c1ncccn1 [5am] | >4.53 | 57.34 ± 0.25 µM | 199 ± 25.4 µM | > 260 | >1.31 |  |  |
| Cc1cccnc1-n1cccc1C(=O)c1ccn(C(C)(C)C)c1 [5bq] | >1.56 | 209 ± 4.69 µM | 92.8 ± 7.68 µM | > 325 |  |  |  |
| Cc1cccnc1-n1cccc1C(=O)c1ccc(Br)cc1 [5bf] | >3.14 | 38.1 ± 0.85 µM | 19.9 ± 1.47 µM | 120 ± 37.4 | >6.01 |  |  |
| O=C(c1ccc(Cl)cc1)c1cccn1-c1ncccn1 [5ae] | >3.01 | 117 ± 10.9 µM | 190 ± 6.76 µM | > 352 | >1.86 |  |  |
| O=C(c1ccc(F)cc1)c1cccn1-c1ncccn1 [5ad] |  | > 100 µg/mL | > 100 µg/mL | 270 ± 26.3 |  | inactive |  |
| CC(C)(C)c1ccc(C(=O)c2cccn2-c2ncccn2)cc1 [5ac] | >2.77 | 32.9 ± 0.74 µM | 58.5 ± 7.04 µM | 91 ± 6.55 | >1.55 |  |  |
| Cc1cccnc1-n1cccc1C(=O)c1ccc(Cl)cc1 [5be] | >2.89 | 51.5 ± 4.72 µM | 20.7 ± 0.98 µM | 149 ± 19.3 | >7.19 |  |  |
| Cc1ccc(C(=O)c2cccn2-c2ncccn2)cc1 [5ab] |  | > 100 µg/mL | > 100 µg/mL | > 381 |  |  |  |
| Cc1cccnc1-n1cccc1C(=O)c1ccc(C#N)cc1 [5bg] | >1.81 | 192 ± 12 µM | 315 ± 60.8 µM | > 348 | >1.10 |  |  |
| CN1CCC(c2cc(-c3ccncc3)c(-c3ccc(F)cc3)[nH]2)CC1 [compound 1] |  |  |  |  |  |  | 2.1 |
| Cc1ccc2ncc(/C=C/C(=O)c3cc[nH]c3)cc2c1 [4a] |  |  |  |  |  |  | 1.29 |
| Cc1cccnc1-n1cccc1C(=O)c1ccc(F)cc1 [5bd] |  | 16.9 ± 0.73 µM | 7.78 ± 0.27 µM | 137 ± 36.4 | >23.15 |  |  |
| COc1cc(C(=O)c2cccn2-c2ncccn2)cc(OC)c1OC [5ak] |  | > 100 µg/mL | > 100 µg/mL | 87.3 ± 7.37 |  | inactive |  |
| N#Cc1ccc(C(=O)c2cccn2-c2ncccn2)cc1 [5ag] |  | > 100 µg/mL | > 100 µg/mL | > 365 |  |  |  |
| Cc1cccnc1-n1cccc1C(=O)c1cccc(OCc2ccccc2)c1 [5bp] | >1.31 | 208 ± 23.6 µM | 184 ± 8.67 µM | > 357 | >1.47 |  |  |
| COc1cc(C(=O)c2cccn2-c2ncccc2C)cc(OC)c1OC [5bk] |  | > 100 µg/mL | > 100 µg/mL | 284 |  | inactive |  |
| CN1CCC(c2cc(-c3ccc(F)cc3)c(-c3ccncc3)[nH]2)CC1 [compound 2] |  |  |  |  |  |  | 0.6 |
| O=C(c1ccc(C(F)(F)F)cc1)c1cccn1-c1ncccn1 [5ai] | >3.13 | 48 ± 1.61 µM | 42.8 ± 0.61 µM | 150 ± 49.4 | >3.51 |  |  |
| O=C(c1ccccc1)c1cccn1-c1ncccn1 [5aa] | >1.55 | 260 ± 40.7 µM | > 100 µg/mL | > 401 |  |  |  |
| COc1ccc2ncc(/C=C/C(=O)c3cc[nH]c3)cc2c1 [4b] |  |  |  |  |  |  | 1.18 |
